The subject of one data set is MPTP-treated monkeys. The note with it: combined with L-Dopa or selective dopamine agonists (D1 or D2); cited from earlier work.
The subject of the next data set is GABA-A. The data set is described as follows: Fluridone/bicuculline in vivo GABA-A agonism/antagonism assay. The note with it: mice, bicuculline 5 mg/kg alone.

Regarding `CCn1c(=O)c2c(nc(/C=C/c3ccc(OC)c(OC)c3)n2C)n(CC)c1=O` [KW-6002], the dyskinesia entry in the data set on MPTP-treated monkeys was “does not induce dyskinesia”. `CN1CCc2cc3c(cc2[C@H]1[C@@H]1OC(=O)c2c1ccc1c2OCO1)OCO3` [bicuculline]: the seizures entry in the data set with GABA-A is “induced immediate seizures”. Moreover, the Death rate in the data set on GABA-A (within ten to twenty second after injection) is on record as 100%.

Values taken from patent publication US20040117125A1, “Drug discovery method and apparatus” (priority 1999, published 2004).
